Assay results: patent US8193326B2, “Nucleic acids encoding novel TERT polypeptides” (GemVax AS, priority 2000, dated 2012)

Test system: T cells from human peripheral blood mononuclear cells (PBMC)
Experiment: Induction and proliferation of human T cell response to peptide (3H-thymidine proliferation assay)
Assay type: cell-based
Conditions: PBMC from four healthy donors primed with peptide-pulsed dendritic cells, re-stimulated with peptide-pulsed autologous PBMC, mean cpm of triplicates
Source text: In this experiment, peripheral blood mononuclear cells (PBMC) from four healthy humans (donors “14328”, “14313”, “23244” and “23255”) and were isolated and primed for seven days with dendritic cells pulsed with the SEQ ID NO: 11 peptide derived from the hTERT σ-insert polypeptide, followed by two cycles consisting of seven days re-stimulation with peptide-pulsed autologous PBMC. The dendritic cells were derived from monocytes from peripheral blood. T cells from the resulting bulk: culture were tested in triplicate with or without peptide-pulsed antigen presenting cells (APC) before harvesting after 3 days. To measure the proliferative capacity of the cultures, ^3H-thymidine (3.7×10^4 Bq/well) was added to the culture overnight before harvesting. Cultures with non-pulsed APC or without APC served as controls. Further details of the protocol used are set out below.
T cell clones were obtained from the resulting bulk cultures from non-vaccinated donors 14313 and 23255. […]
PBMCs were separated out from 50 ml of blood (from buffy coat). The cells were counted and re-suspended in complete RPMI-1640/15% pool serum. […]
Bulk cultures were harvested and stimulated with irradiated PBMCs and peptide. If there was high cell death, cultures were lymphoprep separated, otherwise they were counted and resuspended in RPMI/15% pool serum. […]

SEQ ID NO: 11: peptide derived from the hTERT σ-insert polypeptide (RVAVLWFNFLFKQKPSVSPRG; listed as Homo sapiens)
proliferative T cell response / peptide-specific T cells (bulk cultures and T cell clones, FIGS. 7-9): T cells can be expanded in vitro following stimulation with the relevant peptide
